Assay [1] concerns Candida albicans. Kind of assay: Determination of the minimal inhibitor concentration (MIC) in liquid medium. The class given is cell-based. The note with it: C. Albicans; liquid medium pH 3.5; OD 96 hours after inoculation. How it is done:
(§1) Candida albicans was isolated from a commercial beverage, Saccharomyces cerevisiae (CBS 2190) and Zygosaccharomyces bailii (CBS 6708) were obtained from CBS (Centraalbureau voor Schimmelcultures).
(§2) Yeast cultures were grown in liquid medium (per liter: 5 gram filtered Malt Extract from Oxoid Ltd., England, 40 gram glucose and 5 gram Bacto Peptone from Becton Dickinson, USA, at pH 3.5 prepared according to the manufacturer instructions) in screw-capped tubes for at least 48 hours at 25° C.
(§3) For the determination of the MIC, liquid medium was prepared as described above with increasing amounts of inhibitor. 200 μl of each inhibitor-comprising medium was transferred to a panel of a sterile 96-well Microtiter plate. Completed well plates were stored at 4° C. until further use. For the inoculation of the inhibitor-containing liquid media 5 μl of a 72 to 84 hours grown culture was used. The optical density (OD) for every composition was measured 96 hours after inoculation.

The subject of assay [2] is Saccharomyces cerevisiae (CBS 2190). Described as above. The class given is cell-based. As to conditions: S. cerevisiae; liquid medium pH 3.5; OD 96 hours after inoculation. How it is done: as §1, §2, §3
In assay [3] the test system is Zygosaccharomyces bailii (CBS 6708). The description is as above. Type of assay: cell-based. The note with it: Z. bailii; liquid medium pH 3.5; OD 96 hours after inoculation. How it is done: as §1, §2, §3
The subject of assay [4] is Candida albicans. Kind of assay: Combination tests: inhibition of yeast in model beverage. Type of assay: cell-based. As to conditions: C. Albicans, model beverage pH about 3.5, 96 hours. How it is done: as §1
(§4) Inhibition of yeast was evaluated for combinations of EGCG and polylysine or LAE.
(§5) Yeast cultures were grown in model beverage which contained per litter of demineralised water: 40 g of sucrose, 0.35 g of apple flavour (Givaudan), 8.3 g of apple juice concentrate (Gargill) and 1 g of citric acid. The pH was about 3.5. Cultures were grown in screw-capped tubes for at least 48 hours at 25° C.
(§6) The tests combining two components were carried out in sterile 96-well Microtiter plates. Model beverage was prepared as described above with increasing amounts of two different inhibitors. The concentrations of each inhibitor were presented in 8 equal concentration steps that ranged from 0 to 1-2 times the estimated MIC value of particular yeast for a particular inhibitor. 200 μl of each medium was transferred to a panel of a sterile 96-well Microtiter plate. Completed well plates were stored at 4° C. until further use. For the inoculation of this test 5 μl of a 72 to 84 hours grown culture was used. The OD for every composition was measured 96 hours after inoculation.

For assay [5], the system named is Saccharomyces cerevisiae (CBS 2190). The assay is described as above. The class given is cell-based. The note with it: S. cerevisiae, model beverage pH about 3.5, 96 hours. On the procedure:
as §1, §4, §5, §6

Assay [6] concerns Zygosaccharomyces bailii (CBS 6708). Described as above. As to conditions: Z. bailii, model beverage pH about 3.5, 96 hours. Type of assay: cell-based. How it is done:
as §1, §4, §5, §6

In the next assay the test system is Saccharomyces cerevisiae. As to conditions: culture medium, WO 2009/031041; cited from earlier work.
The test system of the next assay is Kluyveromyces marxianus. As to conditions: culture medium, WO 2009/031041; cited from earlier work.
Setting [7] is: EGCG 0.07 wt. %, average of two experiments.

Marks after values point to notes of the source that are not given here.

As to `O=C(O[C@@H]1Cc2c(O)cc(O)cc2O[C@@H]1c1cc(O)c(O)c(O)c1)c1cc(O)c(O)c(O)c1` [EGCG, Epigallocatechin gallate], the MIC stood at 9000 ppm in the assay on Candida albicans [1], 5000 ppm in assay [2] and 2000 ppm in assay [3]. The “Maximum OD” value in the assay on Candida albicans [4] (setting [7]) is on record as 0.40*; in assay [5] (setting [7]) it was 0.28*; in assay [6] (setting [7]), 0.28*.
`CCCCCCCCCCCC(=O)N[C@@H](CCCN=C(N)N)C(=O)OCC` [LAE, lauric arginate]: the MIC was >70* ppm in the assay with Candida albicans [1]; 30-80 ppm in assay [2]; >70* ppm in assay [3]; 24 ppm in the assay with Saccharomyces cerevisiae; 7 ppm in the assay on Kluyveromyces marxianus. Further, the “Maximum OD” value is given as 0.30 in the assay with Candida albicans [4] (LAE 0.002 wt. %), 0.19 in assay [5] (LAE 0.001 wt. %) and 0.38 in assay [6] (LAE 0.002 wt. %).
Turning to ε-Polylysine, the MIC in the assay on Candida albicans [1] is reported as >40* ppm; in assay [2], 30-80 ppm; in assay [3], >40* ppm. For the same molecule, the “Maximum OD” value with Candida albicans [4] (ε-polylysine 0.0005 wt. %) is listed as 0.32; in assay [6] (ε-polylysine 0.0005 wt. %), 0.40.

These data come from patent US20130259999A1, “METHOD FOR INHIBITING YEAST ACTIVITY” (PURAC BIOCHEM B.V., priority 2010, published 2013).
